Results as given in BindingDB's records for doi:10.1016/j.ejmech.2012.12.014 (Universitat De Barcelona, 2013).

Legend:
[1] = biological target: T1, Glycogen synthase kinase-3 beta (Homo sapiens, UniProt P49841); experiment: (§1) Inhibition of human recombinant GSK-3beta using GS2 peptide as substrate and [gamma33P]-ATP after 30 mins by scintillation counting
[2] = biological target: T1, Glycogen synthase kinase-3 beta; experiment: as §1; remark: listed apart in the source
[3] = biological target: T2, Cyclin-dependent kinase 1 (Homo sapiens, UniProt P06493); experiment: (§2) Inhibition of human recombinant CDK1 using histone H1 as substrate and [gamma33P]-ATP after 15 mins by scintillation counting
T2 sequence (P06493 whole entry): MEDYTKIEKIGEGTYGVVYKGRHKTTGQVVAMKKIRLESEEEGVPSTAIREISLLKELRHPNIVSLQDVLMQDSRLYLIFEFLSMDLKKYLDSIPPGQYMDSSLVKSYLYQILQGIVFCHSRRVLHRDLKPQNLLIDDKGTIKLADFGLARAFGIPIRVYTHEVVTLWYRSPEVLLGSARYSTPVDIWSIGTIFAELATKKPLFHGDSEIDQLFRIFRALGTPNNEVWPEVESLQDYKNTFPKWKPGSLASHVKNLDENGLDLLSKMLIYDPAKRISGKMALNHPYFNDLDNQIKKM

[4] = biological target: T3, Cyclin-dependent kinase 5 (Homo sapiens, UniProt Q00535); experiment: (§3) Inhibition of human recombinant CDK5 using histone H1 as substrate and [gamma33P]-ATP after 20 mins by scintillation counting
T3 sequence (Q00535 whole entry): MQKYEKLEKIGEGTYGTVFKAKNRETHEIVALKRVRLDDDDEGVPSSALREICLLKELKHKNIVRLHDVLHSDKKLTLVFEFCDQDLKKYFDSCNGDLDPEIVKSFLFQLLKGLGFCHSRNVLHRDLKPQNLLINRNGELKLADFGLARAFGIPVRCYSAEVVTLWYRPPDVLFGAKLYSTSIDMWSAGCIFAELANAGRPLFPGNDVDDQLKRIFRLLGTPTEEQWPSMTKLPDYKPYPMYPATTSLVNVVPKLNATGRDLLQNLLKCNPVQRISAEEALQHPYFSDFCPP

[5] = biological target: T4, Glycogen synthase kinase-3 alpha (Homo sapiens, UniProt P49840); experiment: (§4) Inhibition of human recombinant GSK-3alpha using GS2 peptide as substrate and [gamma33P]-ATP after 12 mins by scintillation counting
T4 sequence (P49840 whole entry): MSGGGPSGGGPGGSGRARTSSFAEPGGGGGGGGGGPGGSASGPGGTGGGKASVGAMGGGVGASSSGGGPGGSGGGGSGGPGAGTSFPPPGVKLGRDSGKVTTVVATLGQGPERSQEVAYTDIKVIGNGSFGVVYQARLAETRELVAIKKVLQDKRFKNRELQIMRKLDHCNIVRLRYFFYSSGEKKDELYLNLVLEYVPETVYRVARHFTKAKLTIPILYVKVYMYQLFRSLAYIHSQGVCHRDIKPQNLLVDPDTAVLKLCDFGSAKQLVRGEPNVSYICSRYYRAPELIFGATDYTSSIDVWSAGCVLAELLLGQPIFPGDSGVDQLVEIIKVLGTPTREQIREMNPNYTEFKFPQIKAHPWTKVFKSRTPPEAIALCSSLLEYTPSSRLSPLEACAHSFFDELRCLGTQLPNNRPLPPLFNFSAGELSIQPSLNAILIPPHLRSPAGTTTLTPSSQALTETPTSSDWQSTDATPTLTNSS

[6] = biological target: T2, Cyclin-dependent kinase 1; experiment: as §2; remark: listed apart in the source
[7] = biological target: T3, Cyclin-dependent kinase 5; experiment: as §3; remark: listed apart in the source
[8] = biological target: T4, Glycogen synthase kinase-3 alpha; experiment: as §4; remark: listed apart in the source

T1 sequence (P49841 whole entry): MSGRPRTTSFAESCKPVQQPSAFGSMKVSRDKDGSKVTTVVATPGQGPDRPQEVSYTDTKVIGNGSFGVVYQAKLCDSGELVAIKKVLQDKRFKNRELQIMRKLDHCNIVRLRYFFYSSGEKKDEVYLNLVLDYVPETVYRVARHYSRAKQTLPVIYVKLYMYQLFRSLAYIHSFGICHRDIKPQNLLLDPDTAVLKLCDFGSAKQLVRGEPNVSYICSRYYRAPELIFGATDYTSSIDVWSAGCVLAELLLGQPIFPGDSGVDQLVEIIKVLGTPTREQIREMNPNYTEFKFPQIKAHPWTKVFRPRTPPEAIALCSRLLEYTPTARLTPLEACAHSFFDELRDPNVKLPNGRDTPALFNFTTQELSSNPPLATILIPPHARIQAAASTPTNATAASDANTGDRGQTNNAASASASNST

Question: C/C(=C/CC[C@@H](C)C=C1OC(=O)C(C)C1=O)CCCc1coc(Cc2ccoc2)c1 (some centres not stated) [Ircinin 2] was tested. Which IC50 [1] did it give?
Answer: 2340 nM

Question: And the IC50 [2]?
Answer: 2340 nM

Question: C/C(=C\C=C\C(C)CC/C=C(\C)C[C@H]1OC(=O)C(C)C1=O)CCCc1ccoc1 (some centres not stated) [PALINURIN] was tested. Which IC50 [3] did it give?
Answer: < 100000 nM

Question: What about the IC50 [4] of the same compound?
Answer: < 25100 nM

Question: What about the IC50 [5] of the same compound?
Answer: 1620 nM

Question: What about the IC50 [1] of the same compound?
Answer: 1910 nM

Question: What about the IC50 [2] of the same compound?
Answer: 1910 nM

Question: And the IC50 [6]?
Answer: < 100000 nM

Question: What about the IC50 [7] of the same compound?
Answer: < 25100 nM

Question: And the IC50 [8]?
Answer: 1620 nM

Question: With CCCCCCCC(=O)OC[C@H](O)[C@H]1OC(=O)C(O)C1=O (some centres not stated) as the compound, how does the IC50 [1] read?
Answer: > 50000 nM

Question: What about the IC50 [2] of the same compound?
Answer: > 50000 nM
